Tests used:
Format in all cases: physicochemical
[1] = Dynamic vapor sorption/desorption (DVS) isotherm
Method: Dynamic Vapor Sorption/Desorption (DVS)
Dynamic Vapor Sorption/Desorption (DVS) data was collected on a VTI SGA-100 Vapor Sorption Analyzer, using NaCl and PVP as calibration standards. Samples were not dried prior to analysis. Sorption and desorption data were collected over a range from 5% to 95% relative humidity (RH) at 10% RH increments under a nitrogen purge. The equilibrium criterion used for analysis was less than 0.01000% weight change in 5 minutes with a maximum equilibration time of 3 hours. Data were not corrected for the initial moisture content of the samples.

[2] = Exposure to elevated relative humidity, form checked by XRPD; conditions: 93% relative humidity, four days, ambient temperature
Method: XRPD patterns were obtained with a PANalytical X′Pert PRO MPD diffractometer using an incident beam of Cu radiation (1.54059 angstroms) produced using an Optix long, fine-focus source. The diffractometer was configured using the symmetric Bragg-Brentano geometry. Prior to analysis, a silicon sample (NIST SRM 640e) was analyzed to verify the observed position of the Si 111 peak was consistent with the NIST-certified position. A specimen of the sample was prepared as a thin, circular layer centered on a silicon zero-background substrate. Antiscatter slits (SS) were used to minimize the background generated by air. Soller slits for the incident and diffracted beams were used to minimize broadening fro axial divergence. Diffraction patterns were collected using a scanning position-sensitive detector located 240 mm from the sample.

[3] = Thermogravimetric analysis (TGA); conditions: up to 200° C.
Method: Thermal Gravimetric Analysis
Thermal Gravimetric Analysis (TGA) was performed using a TA Instruments Discovery thermographic analyzer, with temperature calibration being performed using nickel and Alumel™. Each sample was placed in a pan, hermetically sealed, the lid pierced, and then inserted into the thermal gravimetric furnace which was heated under nitrogen.

phase change after DVS testing, by XRPD analysis ([1]; sample evaluated after exposure to humidity in the DVS testing): a phase change did not occur
hygroscopicity (DVS: weight gain in each sorption cycle, hysteresis upon desorption) ([1]; sorption/desorption 5% to 95% RH): not hygroscopic
weight percent change (DVS isotherm) ([1]; up to a percent relative humidity of about 95% (94.79%)): ≤ 0.31 wt %
weight loss (TGA) [3]: ≤ 0.20%
Compound: C=CC(=O)N1CCN(CCCn2c(=O)c(-c3c(Cl)c(OC)cc(OC)c3Cl)cc3cnc(NC)nc32)CC1 [Form 1, 6-(2,6-dichloro-3,5-dimethoxyphenyl)-2-(methylamino)-8-[3-[4-(prop-2-enoyl)piperazin-1-yl]propyl]-7H,8H-pyrido[2,3-d]pyrimidin-7-one]
change in form observable by XRPD (physical stability at elevated humidity) [2]: did not result in any changes in form observable by XRPD
